Here are results for 17 compounds from PubChem BioAssay (NCI).

Holding throughout (assay): NCI anticancer screen, dose series, 48 h
Assay [1] concerns DMS 114 small cell lung.
Assay [2] relates to U251 CNS.
Assay [3] deals with SF-539 CNS.
For assay [4], the system named is NCI-H23 lung.
The subject of assay [5] is SNB-75 CNS.
Assay [6] relates to DLD-1 colon.
In assay [7] the test system is HL-60(TB) leukemia.
The test system of assay [8] is HOP-18 NSCLC.
In assay [9] the test system is HS 578T breast.
For assay [10], the system named is BT-549 breast.

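Cells were grown in 96-well plates and exposed to each compound for 48 hours at five concentrations; endpoints were interpolated linearly between bracketing concentrations, or set to the highest concentration if not reached. TGI: total growth inhibition.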

For `C/C(CC(=O)NCCc1ccccc1)=N\NC(=O)C[n+]1ccccc1`, the TGI in assay [1], in [2], in assay [3], in assay [4], in [5] and in assay [6] was above 100 µM each time. The compound also displayed a TGI in assay [7] above 100 µM.
`CSC(C1c2ccccc2N(c2ccc(C)cc2)c2[nH]c(=O)n(C)c(=O)c21)S(=O)(=O)c1ccc(C)cc1` (configuration not stated): the TGI in assay [1], in assay [2], in [3], in assay [4], in [5] and in [6] was above 100 µM in each case. The compound also yielded a TGI in assay [7] above 100 µM.
For `N#Cc1cccnc1Cl`, the TGI in assay [1], in assay [2], in [8], in assay [3], in assay [4] and in assay [5] was above 100 µM throughout. Also, the TGI in assay [6] and in assay [7] was above 100 µM in each case.
With `CCOC(=O)c1ccc(C)c(N=NN(C)C)c1`, the TGI in [1], in [2], in assay [8], in [3], in [4] and in assay [5] was above 100 µM in each case. Moreover, the TGI in [6] and in [7] was above 100 µM throughout.
Consider `O=C(Nc1c(Cl)cc([N+](=O)[O-])cc1Cl)C(=O)C(C1OC(=O)c2ccccc21)[N+](=O)[O-]` (configuration not stated), for which the TGI in assay [1], in [2], in assay [3], in [4], in assay [5] and in [6] was above 100 µM in each case. Besides, the TGI in assay [7] was above 100 µM.
As for `O=C1CCCC[C@H]1[C@H]1CCC[C@@H]([C@H]2CCCCC2=O)C1=O`, the TGI in assay [2], in [8], in assay [3], in assay [4], in [5] and in assay [6] was above 100 µM each time. The compound also displayed a TGI in assay [7] above 100 µM.
Consider `O=C1/C(=C/c2cccc([N+](=O)[O-])c2)COc2ccc(Br)cc21`, for which the TGI in [1], in assay [2], in assay [8], in assay [3], in [4] and in assay [5] was above 100 µM each time. The TGI in assay [6] was above 100 µM; in [7] it was 58 µM.
Take `O=C(NCO)NCOCn1c(=O)n(CO)c(=O)n(CO)c1=O`: the TGI in assay [1] was 99.3 µM; in assay [2], above 100 µM; in assay [8], above 100 µM; in [3] it was above 100 µM; in assay [4] it was 36.3 µM; in assay [5], above 100 µM. For the same compound, the TGI is 64.4 µM in [6] and 47.5 µM in assay [7].
Turning to `O=C1NC2OC(C(O)CO)C(O)C2O1` (configuration not stated), the TGI in assay [1], in assay [2], in assay [8], in assay [4], in assay [5] and in [7] was above 100 µM throughout.
On to `C=CC/C=C/C/C=C/CCCCCCCc1cccc(O)c1C(=O)O`, for which the TGI in [1] was above 100 µM; in assay [2] it was 46 µM; in [8], 65.3 µM; in [3], above 100 µM; in [4], 75.9 µM; in [5], above 100 µM. Also, the TGI in [6] and in [7] was above 100 µM throughout.
Take `S=C1OC2CCCC[C@H]2O1` (some centres not stated): the TGI in [1], in assay [2], in assay [8], in assay [3], in [4] and in [5] was above 100 µM in each case. Further, the TGI in [6] and in assay [7] was above 100 µM in each case.
For `O=C1CC2CCCC23CC2(CCN13)OCCO2` (configuration not stated), the TGI in [1], in assay [2], in [8], in assay [3], in assay [4] and in assay [5] was above 100 µM in each case. The TGI in [6] and in [7] was above 100 µM each time.
Consider `COc1ccc(CC2NCCc3cc(OC)c(OC)cc32)cc1Br` (configuration not stated), for which the TGI is 52.9 µM in assay [1]; above 100 µM in assay [2]; above 100 µM in assay [8]; above 100 µM in [3]; above 100 µM in [9]; above 100 µM in assay [10]. The TGI in [4] was 85.7 µM; in assay [5] it was above 83.2 µM; in assay [6], above 100 µM; in [7], 28.1 µM.
Take `CC(C)(C)c1cc(C(O)(C(F)(F)F)C(F)(F)F)c2c(c1)C(C(F)(F)F)(C(F)(F)F)OC(C(C)(C)C)N2` (configuration not stated): the TGI in assay [1] stood at 8.95 µM; in assay [2] it was 10.8 µM; in assay [8], 9.34 µM; in [3], 6.68 µM; in [4], 8.6 µM; in assay [5], 11.7 µM. The compound also displayed a TGI in assay [6] of 16.5 µM.
With `CCOC(=O)NC(=O)c1cn(CCCOC(=O)CCCCCCCCCCC(=O)OCCCn2cc(C(=O)NC(=O)OCC)c(=O)[nH]c2=O)c(=O)[nH]c1=O`, the TGI in assay [2], in assay [8], in assay [3], in assay [4], in assay [6] and in assay [7] was above 100 µM each time.
For the compound `O=C1CSC(/C(=N/Nc2ccccc2)c2nc3ccccc3[nH]2)=N1`, the TGI was above 100 µM in [1]; above 100 µM in assay [2]; 85.2 µM in assay [3]; above 100 µM in assay [4]; 97.6 µM in assay [5]; above 100 µM in assay [6]. In assay [7], this compound showed a TGI above 100 µM.
As to `O=C(O)[C@H](NS(=O)(=O)c1ccc([N+](=O)[O-])cc1)c1ccccc1`, the TGI in assay [1], in assay [2], in assay [8], in [3], in [4] and in [5] was above 100 µM each time. This compound showed a TGI in [6] above 100 µM.
